Results published in paper PMC10454375, “Cell-Impermeable Inhibitors Confirm That Intracellular Human Transglutaminase 2 Is Responsible for the Transglutaminase-Associated Cancer Phenotype” (International Journal of Molecular Sciences, 2023).
Peptide text beside a SMILES is read from it. * marks the point of attachment. X1 = C=CC(=O)NCCCCC(NC(=O)OCc1ccccc1)C(=O)N1CCN(C(=O)C(CCC(=O)*)NC(=O)c2cccc3ccccc23)CC1

Experiments:
TG6 = biological target: T1, TG6 (Homo sapiens, UniProt O95932); experiment: TGase isozyme selectivity, TG6 with AL5 substrate; format: biochemical; details: [I]/α identical to that of the TG2 assay
T1 construct: purchased Zedira GmbH (Darmstadt, Germany)
T1 sequence (O95932 1-706): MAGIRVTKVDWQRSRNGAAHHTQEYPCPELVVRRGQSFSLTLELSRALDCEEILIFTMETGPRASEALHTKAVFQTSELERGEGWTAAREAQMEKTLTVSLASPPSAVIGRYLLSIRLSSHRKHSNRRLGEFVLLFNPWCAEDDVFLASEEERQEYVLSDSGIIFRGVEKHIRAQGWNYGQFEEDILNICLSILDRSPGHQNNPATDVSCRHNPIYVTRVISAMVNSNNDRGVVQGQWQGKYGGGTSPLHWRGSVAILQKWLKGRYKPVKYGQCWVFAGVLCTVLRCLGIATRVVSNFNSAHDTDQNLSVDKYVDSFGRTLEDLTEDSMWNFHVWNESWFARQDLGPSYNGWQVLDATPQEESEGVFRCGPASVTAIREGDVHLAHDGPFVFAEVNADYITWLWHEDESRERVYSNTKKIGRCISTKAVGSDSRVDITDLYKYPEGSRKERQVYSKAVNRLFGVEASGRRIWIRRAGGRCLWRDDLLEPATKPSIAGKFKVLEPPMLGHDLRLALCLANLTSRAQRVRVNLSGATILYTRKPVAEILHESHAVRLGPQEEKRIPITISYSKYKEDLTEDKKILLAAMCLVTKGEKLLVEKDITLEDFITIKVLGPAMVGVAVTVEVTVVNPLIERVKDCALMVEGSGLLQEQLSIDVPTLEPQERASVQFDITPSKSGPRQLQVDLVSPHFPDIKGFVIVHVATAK
Text: (§1) In the development of probes for TGases, isozyme selectivity is always a significant challenge. Since the catalytic machinery of the active sites of all TGases features a conserved Gly-Gln-Cys-Trp-Val sequence, selectivity for one isozyme over the others requires exploitation of slight differences in the protein substrate binding sites. In order to assess the isozyme selectivity of our cell-impermeable inhibitors, TG2 and four other therapeutically relevant TGases (Factor XIII, TG1, TG3, and TG6) were exposed to a concentration of inhibitor representing the same apparent competition with respect to the assay substrate (AL5 [38] or A101 [42, 43]). In other words, both the substrate and inhibitor concentrations were varied so that the [I]/α values were identical. […] This provides confidence that in further applications, these cell-impermeable inhibitors will selectively target TG2 over other transglutaminases.
[…] In brief, 125 µL assay buffer #1 (containing TRIS, CaCl2, and NaCl pH 7.5), 18 µL assay buffer #2 (containing TCEP and acceptor substrate H-Gly-OMe pH 7.5), and a respective concentration of inhibitor aqueous working stock balanced with various volumes of water were combined in a 96-well black plate with clear bottom/top. […] The isopeptidase activity of the respective TGase was then monitored at Ex/Em = 313/418 nm with a BioTek Synergy 4 plate reader at 25 °C. […]

TG1 = biological target: T2, TG1 (Homo sapiens, UniProt P22735); experiment: TGase isozyme selectivity, TG1 with AL5 substrate; format: biochemical; details: [I]/α identical to that of the TG2 assay
T2 construct: purchased Zedira GmbH (Darmstadt, Germany)
T2 sequence (P22735 1-817): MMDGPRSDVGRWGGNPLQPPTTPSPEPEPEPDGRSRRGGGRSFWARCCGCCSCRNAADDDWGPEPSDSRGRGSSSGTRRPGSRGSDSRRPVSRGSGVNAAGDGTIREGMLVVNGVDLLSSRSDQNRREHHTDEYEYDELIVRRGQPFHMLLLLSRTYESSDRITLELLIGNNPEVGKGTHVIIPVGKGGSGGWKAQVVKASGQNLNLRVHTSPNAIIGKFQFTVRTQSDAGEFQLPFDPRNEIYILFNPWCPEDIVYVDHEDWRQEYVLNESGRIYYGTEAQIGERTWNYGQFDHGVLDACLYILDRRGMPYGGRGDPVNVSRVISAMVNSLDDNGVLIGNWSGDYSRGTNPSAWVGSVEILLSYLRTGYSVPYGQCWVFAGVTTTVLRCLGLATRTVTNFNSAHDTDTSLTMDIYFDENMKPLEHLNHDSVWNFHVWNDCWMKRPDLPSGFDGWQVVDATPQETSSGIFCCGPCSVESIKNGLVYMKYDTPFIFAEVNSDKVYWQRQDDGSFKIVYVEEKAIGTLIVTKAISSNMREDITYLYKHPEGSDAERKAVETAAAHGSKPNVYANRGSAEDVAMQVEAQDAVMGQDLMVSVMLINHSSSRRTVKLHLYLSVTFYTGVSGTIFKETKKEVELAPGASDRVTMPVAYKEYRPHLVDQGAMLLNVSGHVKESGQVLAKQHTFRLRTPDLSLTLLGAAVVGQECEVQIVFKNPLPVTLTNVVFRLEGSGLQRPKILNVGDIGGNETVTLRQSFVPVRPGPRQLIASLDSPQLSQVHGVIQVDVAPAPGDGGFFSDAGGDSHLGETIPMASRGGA
Text: as §1
To monitor the activity of TG3a and TG6, a FRET-quenched substrate A101 (Zedira Gmbh) was used. […] The isopeptidase activity of the respective TGase was then monitored at Ex/Em = 313/418 nm with a BioTek Synergy 4 plate reader at 25 °C. […]

Structure (SMILES) | inhibition of TG6 (TG6) | inhibition of TG1 (TG1)
C=CC(=O)NCCCCC(NC(=O)OCc1ccccc1)C(=O)N1CCN(C(=O)C(CCC(=O)NCCCCCC(=O)NC(CC(=O)O)C(=O)NC(CC(=O)O)C(=O)NC(CC(=O)O)C(=O)O)NC(=O)c2cccc3ccccc23)CC1 (stereo not shown) [Compound 17] | no detectable inhibition | no detectable inhibition
C=CC(=O)NCCCCC(NC(=O)OCc1ccccc1)C(=O)N1CCN(C(=O)C(CCC(=O)NCC(=O)NCC(=O)NCC(=O)NC(CC(=O)O)C(=O)NC(CC(=O)O)C(=O)NC(CC(=O)O)C(=O)O)NC(=O)c2cccc3ccccc23)CC1 (stereo not shown) [Compound 18] (X1-GGGDDD-OH; configuration not given here) | no detectable inhibition | no detectable inhibition
